Tests used:
Assay type in all cases: in vivo, rat
[1] = test system: IL-6 protein; test: ELISA, IL-6 protein after CCI injury; details: single-dose 30 mg kg^-1 i.p.; ipsilateral cortex, 1 day post-injury; P<0.01
Description: A previously described CCI injury procedure was utilized (Chen et al., 2003). Male Sprague-Dawley rats, which have body weight of 250-300 g, were anaesthetized with sodium pentobarbital (i.p.; 50 mgkg^−1; Rhone Merieux, Harlow, UK) and placed in a stereotaxic frame. A 5-mm craniotomy was performed over the left parietal cortex, centered on the coronal suture and 3 mm lateral to the sagittal suture. Considerable care was taken to avoid injury to the underlying dura. Injury was made using a pneumatic piston with a rounded metal tip (2.5 mm diameter) that was angled 22.5° C. to the vertical so that the tip was perpendicular with the brain surface at the centre of the craniotomy. A velocity of 4 ms^−1 and a deformation depth 2 mm below the dura were used. […] Body temperature was monitored throughout the surgery by a rectal probe; temperature was maintained at 37.0±0.5° C. using a heated pad. […]
Single-dose baicalein (30 mg kg^−1) or a corresponding volume of vehicle was administered i.p. immediately following injury. […] Testing after injury was as follows: (1) real-time quantitative RT-PCR analysis for TNF-α, IL-1β and IL-6 mRNA expression at 6 h post-injury (n=7 for each group); (2) FluoroJade B (FJB) staining, TNF-α, IL-1β and IL-6 immunohistochemistry, as well as ELISA at 24 h post-injury to assess degenerative neurons and to determine cytokine expression (n=7 for each group). […]

[2] = test system: TNF-α mRNA; test: Real-time quantitative RT-PCR, TNF-α mRNA after CCI injury; details: single-dose 30 mg kg^-1 i.p.; ipsilateral cortex, 6 h after injury; P<0.05
Description: (§1) A previously described CCI injury procedure was utilized (Chen et al., 2003). Male Sprague-Dawley rats, which have body weight of 250-300 g, were anaesthetized with sodium pentobarbital (i.p.; 50 mgkg^−1; Rhone Merieux, Harlow, UK) and placed in a stereotaxic frame. A 5-mm craniotomy was performed over the left parietal cortex, centered on the coronal suture and 3 mm lateral to the sagittal suture. Considerable care was taken to avoid injury to the underlying dura. Injury was made using a pneumatic piston with a rounded metal tip (2.5 mm diameter) that was angled 22.5° C. to the vertical so that the tip was perpendicular with the brain surface at the centre of the craniotomy. A velocity of 4 ms^−1 and a deformation depth 2 mm below the dura were used. […] Body temperature was monitored throughout the surgery by a rectal probe; temperature was maintained at 37.0±0.5° C. using a heated pad. […] Testing after injury was as follows: (1) real-time quantitative RT-PCR analysis for TNF-α, IL-1β and IL-6 mRNA expression at 6 h post-injury (n=7 for each group); (2) FluoroJade B (FJB) staining, TNF-α, IL-1β and IL-6 immunohistochemistry, as well as ELISA at 24 h post-injury to assess degenerative neurons and to determine cytokine expression (n=7 for each group). […] Approximately 50 mg tissue was collected from the ipsilateral (injured) hemisphere and processed for real-time quantitative RT-PCR. […]

[3] = test system: IL-6 mRNA; test: Real-time quantitative RT-PCR, IL-6 mRNA after CCI injury; details: single-dose 30 mg kg^-1 i.p.; ipsilateral cortex, 6 h after injury; P<0.05
Description: as §1

How did the “IL-6 protein concentration, % of concentration in vehicle-treated rats” value [1] turn out when `O=c1cc(-c2ccccc2)oc2cc(O)c(O)c(O)c12` [baicalein] was run?
Its value is 67%.

What about the “TNF-α mRNA level, % of level in vehicle-treated injured rats” value [2] of the same compound?
Its value is 49%.

And the “IL-6 mRNA level, % of level in vehicle-treated injured rats” value [3]?
Its value is 43.6%.
